Results: patent US20250144067A1, “PERSONALIZED STARVATION THERAPY FOR CANCER” (Faeth Therapeutics, Inc., priority 2021, published 2025)
Where a name gives a salt, the structure may show the parent alone. Read-outs that look alike come from different tables or passages of the source.

How the values were obtained:
[1] = tested on: NCI-H292 lung cancer cells; assay: FDA drug screening, complete media vs cholesterol-free media without statin (TABLE 1); format: cell-based, human
[2] = tested on: NCI-H292 lung cancer cells; assay: FDA drug screening, complete media vs cholesterol-free media with simvastatin (TABLE 2); format: cell-based, human
[3] = Complete minus Cholesterol-free, greater than 0 enhanced anti-cancer activity, about 0 neutral, below 0 antagonist
[4] = NCI-H292 cells, FDA drug library screen, cholesterol-free media without statin
[5] = NCI-H292 cells, FDA drug library screen, complete media
[6] = NCI-H292 cells, FDA drug library screen, cholesterol-free media with simvastatin 0.04 μM
[7] = complete media minus cholesterol-free media + simvastatin, >0 enhanced anti-cancer activity, about 0 neutral, <0 antagonist
[8] = complete media vs cholesterol-free media + simvastatin (0.04 μM), >0 enhanced anti-cancer activity, about 0 neutral, <0 antagonist
[9] = NCI-H292 cells, cholesterol-free media without statin
[10] = complete vs cholesterol-free media, greater than 0 enhanced anti-cancer activity, about 0 neutral, below 0 antagonists
[11] = NCI-H292 cells, cholesterol-free media with simvastatin 0.04 μM, cell growth value in FDA drug screen
[12] = NCI-H292 cells, complete media, cell growth value in FDA drug screen
[13] = NCI-H292 cells, cholesterol-free media without statin, FDA drug library screen
[14] = NCI-H292 cells, complete media, FDA drug library screen
[15] = complete vs cholesterol-free media, >0 enhanced anti-cancer activity, about 0 neutral, <0 antagonist
[16] = Complete minus Cholesterol-free, >0 enhanced anti-cancer activity, about 0 neutral, <0 antagonist

`CN(C)CCCN1c2ccccc2Sc2ccccc21` [Promazine (hydrochloride)] showed a Difference [1, 3] of −0.18, a Cholesterol-free [1, 4] of 1.243 and a Complete [1, 5] of 1.064. The “Cholesterol-free media + simvastatin (0.04 μM)” value [2, 6] was 0.8407, the “Complete Media” value [2, 5] was 0.9785 and the Difference [2, 7] was 0.14.

In the case of `CN(C)c1cc(CNCC(C)(C)C)c(O)c2c1C[C@H]1C[C@H]3[C@H](N(C)C)C(O)=C(C(N)=O)C(=O)[C@@]3(O)C(O)=C1C2=O` [Omadacycline (hydrochloride)], the Difference [1, 3] is reported as −0.15, the Cholesterol-free [1, 4] is reported as 1.103 and the Complete [1, 5] is reported as 0.9531. For the same compound, the “Cholesterol-free media + simvastatin (0.04 μM)” value [2, 6] was 1.209, the “Complete Media” value [2, 5] was 1.089 and the Difference [2, 8] was −0.12.

Work on `O=c1[nH]ccc2c(S(=O)(=O)N3CCCNCC3)cccc12` [Hydroxyfasudil (hydrochloride)] yielded a Cholesterol-free [1] of 1.045, a Complete [1] of 0.7884 and a Difference [1] of −0.26. The “Cholesterol-free media + simvastatin (0.04 μM)” value [2] was 0.8461, the “Complete Media” value [2] was 0.9788 and the Difference [2] was 0.13.

`CC1=NS(=O)(=O)c2cc(Cl)ccc2N1` [Diazoxide] gave a Cholesterol-free [1, 9] of 1.261, a Complete ([1]; NCI-H292 cells, complete media) of 0.9038 and a Difference [1, 10] of −0.36. The “Cholesterol-free media + simvastatin (0.04 μM)” value [2, 11] was 0.9722, the “Complete Media” value [2, 12] was 1.066 and the Difference [2, 7] was 0.09.

`S=P(N1CC1)(N1CC1)N1CC1` [Thio-TEPA] showed a Cholesterol-free [1] of 0.9267, a Complete [1] of 0.7941 and a Difference [1] of −0.13. The “Cholesterol-free media + simvastatin (0.04 μM)” value [2] was 0.6864, the “Complete Media” value [2] was 0.8177 and the Difference [2] was 0.13.

In the case of Econazole (nitrate), the Difference [1, 3] is reported as −0.13, the Cholesterol-free [1, 4] is reported as 0.9667 and the Complete [1, 5] is reported as 0.8375. The “Cholesterol-free media + simvastatin (0.04 μM)” value [2, 6] was 0.1971 and the Difference [2, 7] was 0.88.

`CC[C@H]1OC(=O)[C@H](C)[C@@H](O[C@H]2C[C@@](C)(OC)[C@@H](O)[C@H](C)O2)[C@H](C)[C@@H](O[C@@H]2O[C@H](C)C[C@H](N(C)C)[C@H]2O)[C@](C)(O)C[C@@H](C)[C@@H]2N[C@@H](COCCOC)O[C@H]([C@H]2C)[C@]1(C)O` [Dirithromycin] gave a Cholesterol-free [1, 13] of 0.918, a Complete [1, 14] of 0.9938 and a Difference [1, 15] of 0.08. For the same compound, the “Cholesterol-free media + simvastatin (0.04 μM)” value [2, 6] was 1.565, the “Complete Media” value [2, 5] was 1.493 and the Difference [2, 8] was −0.07.

Compound `O=C1C=C2C=C[C@@H]3C[C@@]2(O1)[C@H]1CCCCN31` [(−)-Securinine] has a Cholesterol-free [1, 13] of 0.7572, a Complete [1, 14] of 0.9271 and a Difference ([1]; complete vs cholesterol-free media, […]) of 0.17. For the same compound, the “Cholesterol-free media + simvastatin (0.04 μM)” value ([2]; NCI-H292 cells, cholesterol-free media with simvastatin 0.04 μM, […]) was 0.8712, the “Complete Media” value ([2]; NCI-H292 cells, complete media, […]) was 0.9865 and the Difference ([2]; complete media minus cholesterol-free media + simvastatin, […]) was 0.12.

Compound Masitinib (mesylate) has a Difference [1, 3] of −0.14, a Cholesterol-free [1, 4] of 1.027 and a Complete [1, 5] of 0.8899. The “Cholesterol-free media + simvastatin (0.04 μM)” value [2, 6] was 1.086, the “Complete Media” value [2, 5] was 1.002 and the Difference [2, 8] was −0.08.

For `CCCc1nc(C)c2c(=O)[nH]c(-c3cc(S(=O)(=O)N4CCN(CC)CC4)ccc3OCC)nn12` [Vardenafil (hydrochloride)], the Cholesterol-free [1, 9] was 1.352, the Complete ([1]; NCI-H292 cells, complete media) was 0.985 and the Difference [1, 10] was −0.37. For the same compound, the “Cholesterol-free media + simvastatin (0.04 μM)” value [2, 11] was 1.201, the “Complete Media” value [2, 12] was 1.248 and the Difference [2, 7] was 0.05.

`CCCc1nn(C)c2c(=O)[nH]c(-c3cc(S(=O)(=O)N4CCN(C)CC4)ccc3OCC)nc12` [Sildenafil] showed a Difference ([1]; Complete minus Cholesterol-free, greater than 0 enhanced anti-cancer activity, about 0 neutral, below 0 antagonists) of −0.63, a Cholesterol-free ([1]; NCI-H292 cells in cholesterol-free media without statin) of 1.66 and a Complete ([1]; NCI-H292 cells in complete media) of 1.034. The “Cholesterol-free media + simvastatin (0.04 μM)” value [2, 6] was 1.23, the “Complete Media” value [2, 5] was 1.131 and the Difference [2, 8] was −0.10.

Work on `Nc1ccc(/N=N/c2ccccc2)c(N)n1` [Phenazopyridine (hydrochloride)] yielded a Difference [1, 16] of −0.06, a Cholesterol-free [1, 13] of 1.194 and a Complete [1, 14] of 1.131. For the same compound, the “Cholesterol-free media + simvastatin (0.04 μM)” value [2, 6] was 1.284, the “Complete Media” value [2, 5] was 1.801 and the Difference [2, 7] was 0.52.

Compound `COc1cc(C2Oc3cc([C@H]4Oc5cc(O)cc(O)c5C(=O)[C@@H]4O)ccc3OC2CO)ccc1O` (some centres unmarked) [Silibinin] has a Cholesterol-free [1, 13] of 0.9386, a Complete [1, 14] of 1.219 and a Difference [1, 15] of 0.28. The “Cholesterol-free media + simvastatin (0.04 μM)” value ([2]; NCI-H292 cells, FDA library drug in cholesterol-free media with simvastatin 0.04 μM) was 2.112, the “Complete Media” value ([2]; NCI-H292 cells, FDA library drug in complete media) was 1.696 and the Difference [2, 8] was −0.42.

Compound `CCOc1nc2cccc(C(=O)O)c2n1Cc1ccc(-c2ccccc2-c2nnn[nH]2)cc1` [Candesartan] has a Difference [1, 16] of 0.02, a Cholesterol-free [1, 13] of 0.9494 and a Complete [1, 14] of 0.9741. The “Cholesterol-free media + simvastatin (0.04 μM)” value ([2]; NCI-H292 cells, drug in cholesterol-free media with simvastatin 0.04 μM) was 1.101, the “Complete Media” value ([2]; NCI-H292 cells, drug in complete media) was 0.8684 and the Difference [2, 8] was −0.23.
